From ChEMBL document CHEMBL6092136, “Design, classification, and adverse effects of NSAIDs: A review on recent advancements” (Bioorg Med Chem, 2024)
pIC50: −log10 of the molar value.

Columns and labels:
[1] = Inhibition of soya bean 15-LOX by enzyme immune assay; design: species or system Glycine max
[2] = Selectivity index, ratio of IC50 for COX-2 (unknown origin) to IC50 for COX-1 (unknown origin)
Ovis aries = species on record: Ovis aries; assay: Selectivity index, ratio of IC50 for inhibition of ovine COX-1 to IC50 for inhibition of ovine COX-2
Rattus norvegicus [3] = assay: Antiinflammatory activity in formalin-induced paw edema in Wistar albino rat model assessed as reduction in paw edema volume at 18 mg/kg, po administered once daily via gavage by 7 days; format: functional; design: scale not given: the % may be the effect or the level left; settings: time 7 day
Rattus norvegicus [4] = assay: Acute ulcerogenic activity in Albino Wistar rat assessed as ulcer index at 18 mg/kg via oral gavage once daily for 3 days; format: toxicity, organism-based; settings: in vivo, 72 h, time 3 day

Ratio IC50 (Ovis aries) | Structure (SMILES) | other results
 | Cc1ccc(Cl)c(Nc2ccccc2C(=O)O)c1Cl | pIC50 [1]: 5.25
 | COc1ccc(/C(N)=N/OC(=O)C(C)c2ccc3cc(OC)ccc3c2)cc1 (configuration not stated) | Ratio IC50 [2]: 13
247 | CCOC(=O)c1cnn(C(=O)c2cnn(-c3ccc(S(C)(=O)=O)cc3)c2N)c1N | 
247 | CCOC(=O)c1c(C)nn(C(=O)c2cnn(-c3ccc(S(C)(=O)=O)cc3)c2N)c1N | 
 | COc1ccc2cc(C(C)C(=O)O/N=C(\N)c3ccc(Cl)cc3)ccc2c1 (configuration not stated) | Ratio IC50 [2]: 13
247 | Cc1cc(C)n(C(=O)c2cnn(-c3ccc(S(C)(=O)=O)cc3)c2N)n1 | 
247 | CCOC(=O)c1cnn(C(=O)c2c(C)nn(-c3ccc(S(C)(=O)=O)cc3)c2N)c1N | 
247 | CSc1nn(C(=O)c2c(C)nn(-c3ccc(S(N)(=O)=O)cc3)c2N)c(N)c1C#N | 
 | CCCn1c(-c2ccc(Cl)cc2)cs/c1=N\NC(=O)Cn1nc(C)cc1C | Activity (Rattus norvegicus [3]): 97.3%
 | COc1ccc(-n2c(-c3ccc(C)cc3)cs/c2=N\NC(=O)Cn2nc(C)cc2-c2ccc(Cl)cc2)cc1 | UI (Rattus norvegicus [4]): 0
247 | CSc1nn(C(=O)c2cnn(-c3ccc(S(C)(=O)=O)cc3)c2N)c(N)c1C#N | 
 | COc1ccc2cc(C(C)C(=O)O/N=C(\N)c3ccc(OC)c(OC)c3)ccc2c1 (configuration not stated) | Ratio IC50 [2]: 13
